Reference: ChEMBL document CHEMBL3044754, “Physcion, a natural anthraquinone derivative, enhances the gene expression of leaf-specific thionin of barley against Blumeria graminis” (2010)
Activity calls are given as the source filed them. The calls are words filed in the database; no cut-off is given here.

How the values were obtained:
Hordeum vulgare [1] = assay: Induction of resistance to Blumeria graminis f. sp. hordei isolate W14 infection in Hordeum vulgare cv. Edamai 9 (barley) assessed as upregulation of leaf-specific thionin gene using Contig1570_s_at as probe at 10 mg/l after 8 hr by qRT-PCR analysis relative to untreated control; assay type: functional
Hordeum vulgare [2] = assay: Induction of resistance to Blumeria graminis f. sp. hordei isolate W14 infection in Hordeum vulgare cv. Edamai 9 (barley) assessed as upregulation of leaf-specific thionin gene using Contig1567_x_at as probe at 10 mg/l after 8 hr by qRT-PCR analysis relative to untreated control; assay type: functional
Hordeum vulgare [3] = assay: Induction of resistance to Blumeria graminis f. sp. hordei isolate W14 infection in Hordeum vulgare cv. Edamai 9 (barley) assessed as downregulation of Pathogenesis-related protein 4 gene using Contig2550_x_at as probe at 10 mg/l after 8 hr by microarray analysis relative to untreated control; assay type: functional
Hordeum vulgare [4] = assay: Induction of resistance to Blumeria graminis f. sp. hordei isolate W14 infection in Hordeum vulgare cv. Edamai 9 (barley) assessed as downregulation of Bsi1 protein gene using HD04G07u_s_at as probe at 10 mg/l after 8 hr by microarray analysis relative to untreated control; assay type: functional
Hordeum vulgare [5] = assay: Induction of resistance to Blumeria graminis f. sp. hordei isolate W14 infection in Hordeum vulgare cv. Edamai 9 (barley) assessed as downregulation of Oxalate oxidase gene using Contig3017_at as probe at 10 mg/l after 8 hr by microarray analysis relative to untreated control; assay type: functional
Hordeum vulgare [6] = assay: Induction of resistance to Blumeria graminis f. sp. hordei isolate W14 infection in Hordeum vulgare cv. Edamai 9 (barley) assessed as downregulation of Pathogenesis-related protein gene using Contig4054_s_at as probe at 10 mg/l after 8 hr by microarray analysis relative to untreated control; assay type: functional
Hordeum vulgare [7] = assay: Induction of resistance to Blumeria graminis f. sp. hordei isolate W14 infection in Hordeum vulgare cv. Edamai 9 (barley) assessed as downregulation of Peroxidase gene using HVSMEm0005P05r2_at as probe at 10 mg/l after 8 hr by microarray analysis relative to untreated control; assay type: functional
Hordeum vulgare [8] = assay: Induction of resistance to Blumeria graminis f. sp. hordei isolate W14 infection in Hordeum vulgare cv. Edamai 9 (barley) assessed as upregulation of Phytoene synthase E1 gene using Contig13305_at as probe at 10 mg/l after 8 hr by microarray analysis relative to untreated control; assay type: functional
Hordeum vulgare [9] = assay: Induction of resistance to Blumeria graminis f. sp. hordei isolate W14 infection in Hordeum vulgare cv. Edamai 9 (barley) assessed as upregulation of Xyloglucan endotransglycosylase-like protein gene using Contig2669_at as probe at 10 mg/l after 8 hr by microarray analysis relative to untreated control; assay type: functional
Hordeum vulgare [10] = assay: Induction of resistance to Blumeria graminis f. sp. hordei isolate W14 infection in Hordeum vulgare cv. Edamai 9 (barley) assessed as upregulation of stress-induced gene using Contig3427_at as probe at 10 mg/l after 8 hr by microarray analysis relative to untreated control; assay type: functional
Hordeum vulgare [11] = assay: Induction of resistance to Blumeria graminis f. sp. hordei isolate W14 infection in Hordeum vulgare cv. Edamai 9 (barley) assessed as upregulation of stress-induced gene using Contig3426_at as probe at 10 mg/l after 8 hr by microarray analysis relative to untreated control; assay type: functional
Hordeum vulgare [12] = assay: Induction of resistance to Blumeria graminis f. sp. hordei isolate W14 infection in Hordeum vulgare cv. Edamai 9 (barley) assessed as upregulation of leaf-specific thionin gene using Contig1582_x_at as probe at 10 mg/l after 8 hr by microarray analysis relative to untreated control; assay type: functional
Hordeum vulgare [13] = assay: Induction of resistance to Blumeria graminis f. sp. hordei isolate W14 infection in Hordeum vulgare cv. Edamai 9 (barley) assessed as upregulation of leaf-specific thionin gene using Contig1570_s_at as probe at 10 mg/l after 8 hr by microarray analysis relative to untreated control; assay type: functional
Hordeum vulgare [14] = assay: Induction of resistance to Blumeria graminis f. sp. hordei isolate W14 infection in Hordeum vulgare cv. Edamai 9 (barley) assessed as upregulation of leaf-specific thionin gene using Contig1580_x_at as probe at 10 mg/l after 8 hr by microarray analysis relative to untreated control; assay type: functional
Hordeum vulgare [15] = assay: Induction of resistance to Blumeria graminis f. sp. hordei isolate W14 infection in Hordeum vulgare cv. Edamai 9 (barley) assessed as upregulation of leaf-specific thionin gene using Contig1567_x_at as probe at 10 mg/l after 8 hr by microarray analysis relative to untreated control; assay type: functional
Hordeum vulgare [16] = assay: Induction of systemic resistance to Blumeria graminis f. sp. hordei isolate W14 infection in Hordeum vulgare cv. Edamai 9 (barley) assessed as decrease in colonies on leaf at 10 mg/l up to 216 hr relative to untreated-control; assay type: functional, organism-based
Hordeum vulgare [17] = assay: Induction of localised resistance to Blumeria graminis f. sp. hordei isolate W14 infection in Hordeum vulgare cv. Edamai 9 (barley) assessed as decrease in colonies on leaf at 10 mg/l up to 216 hr relative to untreated-control; assay type: functional, organism-based
Blumeria hordei [18] = assay: Antifungal activity against Blumeria graminis f. sp. hordei isolate W14 infected barley cv. Edamai 9 assessed as disease index at 10 mg/l after 15 days (reference value: 76.5%); assay type: functional
Blumeria hordei [19] = assay: Antifungal activity against Blumeria graminis f. sp. hordei isolate W14 infected barley cv. Edamai 9 assessed as conidial germination at 10 mg/l after 15 days (reference value: 92.4%); assay type: functional
Hordeum vulgare [20] = assay: Induction of resistance to Blumeria graminis f. sp. hordei isolate W14 infection in Hordeum vulgare cv. Edamai 9 (barley) assessed as upregulation of leaf-specific thionin gene using Contig1576_at as probe at 10 mg/l after 8 hr by microarray analysis relative to untreated control; assay type: functional
Blumeria hordei [21] = assay: Antifungal activity against Blumeria graminis f. sp. hordei isolate W14 assessed as conidial germination at 10 mg/l after 48 hr (reference value: 47.3%); assay type: functional

COc1cc(O)c2c(c1)C(=O)c1cc(C)cc(O)c1C2=O [PHYSCION]
fold change (FC) (Hordeum vulgare [1]): 5.61
fold change (FC) (Hordeum vulgare [2]): 4.77
fold change (FC) (Hordeum vulgare [3]): -2.34
fold change (FC) (Hordeum vulgare [4]): -2.77
fold change (FC) (Hordeum vulgare [5]): -2.87
fold change (FC) (Hordeum vulgare [6]): -2.94
fold change (FC) (Hordeum vulgare [7]): -2.96
fold change (FC) (Hordeum vulgare [8]): 2.09
fold change (FC) (Hordeum vulgare [9]): 2.44
fold change (FC) (Hordeum vulgare [10]): 2.41
fold change (FC) (Hordeum vulgare [11]): 3.04
fold change (FC) (Hordeum vulgare [12]): 4.26
fold change (FC) (Hordeum vulgare [13]): 4.3
fold change (FC) (Hordeum vulgare [14]): 4.74
fold change (FC) (Hordeum vulgare [15]): 19.91
Activity (Hordeum vulgare [16]): inactive
Activity (Hordeum vulgare [17]): Active
PDI (Blumeria hordei [18]): 4.4%
Activity (Blumeria hordei [19]): 4.5%
fold change (FC) (Hordeum vulgare [20]): 9.34
Activity (Blumeria hordei [21]): 56.6%
